How the values were obtained:
[1] = tested on: Formosan subterranean termites; test: Assay for Vapor Toxicity (1 liter bottles); assay type: in vivo, Coptotermes formosanus
Procedure: (§1) Formosan subterranean termites were collected from bucket traps placed in City Park,
(§2) New Orleans, La. Altogether five colonies designated 1314, 1559, 1732, 1743 and 1756 were used in the tests. After collection, the termites (primarily workers and soldiers) were transferred to plastic boxes with moist spruce slats. The boxes were stored in an incubator maintained at 28° C., 65% RH, and constant darkness. Termites were used within one month of their collection.
Assay for Vapor Toxicity. This test was conducted in 960 ml (approximately 1 liter) wide-mouth clear Qorpak™ (All-Pak, Inc.) bottles with PTFE lined caps. A 60 mm diameter glass Petri dish with a moist filter paper and 50 termite workers was placed at the bottom of each bottle. The test chemical was applied to a 1 cm diameter filter paper and suspended with an insect pin from the cap-liner. Each chemical was initially tested at 1 mg then at 0.1 and 0.5 mg. Since 0.1 and 0.5 mg doses caused very low and 100% mortality respectively, the final test was carried out at 0.25 mg. Each chemical was tested with different termite colonies and replicated three times. The bottles were placed in the incubator. Mortality was recorded after 1, 2 and 3 days by quickly taking the glass Petri dish with the termites out of the bottle (with a pair of long forceps) and replacing it after removing the dead workers.

carpenter ants = test: Carpenter ant test in sealed jars; assay type: in vivo; details: within 24 hours; one drop (approximately 25 to 30 mg) on filter paper in sealed jar
Procedure: One drop (approximately 25 to 30 mg) of test compound (l-linaloo , l-carvone, and Styralyl Alcohol,) was applied to a filter paper within sealed jars (16 oz glass jar, 3½ inch diameter, 3⅞ inch high with plastic lids) containing ten carpenter ants per replicate with there being five replicates. Five negative controls with no test compounds were also run. The l-linalool, l-carvone, and styralyl alcohol each provided 100% mortality to the carpenter ants within 24 hours while the control produced 6% mortality over the same 24 hour period.

[2] = tested on: Formosan subterranean termites; test: Vapor Toxicity Under Subterranean Conditions (soil and wood); assay type: in vivo, Coptotermes formosanus; details: for termites killed (vapor toxicity under subterranean conditions): 25 mg
Procedure: as §1, §2
Vapor Toxicity Under Subterranean Conditions. This test was also conducted in the
Qorpak™ bottles. A 35 by 40 by 7 mm piece of moist spruce was placed at the bottom of the bottle and covered with 40 g fine-sifted black soil. One hundred workers were released into each bottle and allowed to tunnel under the soil and into the wood. After 3 days, a test chemical was applied to a filter paper and suspended from the cap-liner. The chemicals were tested at a rate of 25 mg. […] The test was conducted with termites from 3 colonies and replicated 3 times.

[3] = tested on: Formosan subterranean termites; test: Assay for Contact Toxicity (treated filter paper in Petri dishes); assay type: in vivo, Coptotermes formosanus; details: 1 day; rate of 0.5 mg/liter

Compound | mortality to carpenter ants (carpenter ants) [%] | termites killed (vapor toxicity under subterranean conditions) ([2]; 2 days) [%] | effectiveness against termites in soil and wood [2] | also measured
C=C[C@](C)(O)CCC=C(C)C [l-linalool] | 100 | 69 |  | termites killed (vapor toxicity) ([1]; 1 day, 0.5 mg): 100%; termites killed (vapor toxicity) ([1]; 3 days, 0.25 mg): 70%
CC(O)c1ccccc1 (stereo not drawn) [Styralyl Alcohol, alpha-methyl benzyl alcohol] | 100 |  |  | termites killed (contact toxicity) [3]: 98%; termites killed (vapor toxicity) ([1]; 2 days, 0.25 mg/liter volume): 100%; termites killed (vapor toxicity under subterranean conditions) ([2]; time not given): 11%
CC(C)=CCCC(C)CC=O (stereo not drawn) [citronellal, reference compound] |  |  | totally ineffective | 
l-carvone | 100 | 57 |  | termites killed (vapor toxicity) ([1]; 1 day, 0.5 mg): 100%; termites killed (vapor toxicity) ([1]; 3 days, 0.25 mg): 95%; termites killed (vapor toxicity under subterranean conditions) ([2]; one day): 37%
Cc1ccc(C(C)C)cc1 [p-cymene, reference compound] |  |  | totally ineffective | 
CC(C)=CCC/C(C)=C/CO [geraniol, reference compound] |  |  | totally ineffective | 
C=C(C)C1CC=C(C)C(O)C1 (mixture of isomers) [carveol, reference compound] |  |  | totally ineffective | 
CCC(C)(O)CCCC(C)C (stereo not drawn) [tetrahydrolinalool] |  | 53 |  | 

Source: patent US20110207829A1, “CONTROL OF TERMITES, FIRE ANTS AND CARPENTER ANTS” (Bedoukian Research, Inc, priority 2008, published 2011)
